Measurements taken from patent US7585846B2, “Compounds for delivering amino acids or peptides with antioxidant activity into mitochondria and use thereof” (University of Rochester, priority 2003, dated 2009).

Key:
spinal cord neurons = test: Oxidative stress-induced apoptosis (condensed and fragmented nuclei, Hoechst staining); format: cell-based
Source text: FIG. 3B is a control for FIG. 3A. FIG. 3C is a bar diagram summary of the percent of neurons with condensed fragmented nuclei after H2O2 treatment. The concentrations of H2O2 used are shown on the x-axis.
Central to the proposed therapeutic intervention is the belief that SCN undergo apoptosis and possibly necrosis under oxidative stress. […] Image pairs, obtained from H2O2-treated (FIG. 3A) and non-treated (FIG. 3B) SCN, are shown in both phase contrast and after Hoechst nuclear staining. Many of the neurons in FIG. 3A show condensed and fragmented nuclei (arrows) indicative of apoptotic cells. In contrast, control neurons in FIG. 3B show predominantly diffuse nuclear staining (arrows). […] This percentage increased to […] for 500 μM H2O2. […] These changes were concentration-dependent and increased by mtGSH depletion. […] In contrast, immunoreactivity to cytochrome C oxidase (COX), a marker in the inner mitochondrial membrane remains independent of the mitochondrial insults by H2O2 (FIG. 3E). The differential staining between Cyt C and COX affords a secondary method to assess whether a given neuron has undergone mitochondrial permeability transition (MPT).

[1] = test system: cultured neonatal rat ventricular myocytes; test: H2O2-induced depolarization of mitochondrial membrane potential (TMRM fluorescence) in myocytes; format: cell-based; conditions: for onset of H2O2-induced depolarization and loss of TMRM fluorescence: pretreatment 50 or 100 μM for 30 minutes
Procedure: TMRM is a lipophilic cation that partitions selectively into the negatively charged mitochondria Neonatal cultured myocytes (6 days in culture) were loaded with 10 nM TMRM for 60 minutes at 37° C. The myocytes were pretreated with either 50 or 100 μM Mito GSH or 100 μM non-targeted GSH for 30 minutes and then washed to remove the antioxidants from the solution in which myocytes were suspended. As a control, myocytes were not pretreated with any drug. TMRM was excited at 555 nm and fluorescence emission was detected at 590 nm. Fluorescence images were taken every 2 minutes. At the arrow, myocytes were subjected to oxidative stress by adding 50 μM H2O2. Plots were normalized to baseline, and are shown as F/Fo, where F is the emitted fluorescence at any given time and Fo is the baseline fluorescence before addition of H2O2. […] The traces were drawn from the mean values of 7-10 experiments.
TMRM was used as an indicator of mitochondrial membrane potential. The myocytes were pretreated with 50 μM Mito GSH for 30 minutes and then washed to remove the antioxidant from the solution in which myocytes were suspended. In control, myocytes were not pretreated with any drug. TMRM was excited at 555 nm and fluorescence emission was detected at 590 nm. Fluorescence images were taken every 2 minutes to avoid photobleaching and phototoxicity. Myocytes were subjected to oxidative stress by adding 50 μM H2O2.

brain striatal neurons = conditions: pretreatment 100 μM; 100 μM NMDA; DCF fluorescence
Procedure: Intracellular reactive oxygen species (ROS) were measured by using the redox-sensitive dye, dichlorohydrofluorescein (H2DCFDA). […] Cultured striatal neurons (10 days in culture) were loaded with 50 nM H2DCFDA for 25 min. The neurons were excited at 488 nm and the image was acquired at 515 nm wavelength. ROS production was induced by treating the neurons with 100 μM NMDA. An increase in DCFDA fluorescence by NMDA treatment reflected an increased production of ROS or oxidative stress. […] Plots were normalized to baseline, and are shown as F/Fo, where F is the emitted fluorescence at any given time and Fo is the baseline fluorescence before addition of NMDA. […] The traces were drawn from the mean values of 3 experiments.

Rat heart mitochondria [2] = test: Mitochondrial membrane potential by TPP+ sensitive electrode under rotenone/t-BuOOH oxidative stress; format: biochemical; conditions: pretreatment 5 mM at 4° C. for 30 minutes; 5 μM rotenone and 100 μM t-BuOOH; TPP+ signal
Procedure: Mitochondrial membrane potential was measured by a TPP+ (tetraphenyl phosphonium) sensitive electrode. Rat heart mitochondria (1 mg protein/100 μl) were transferred to a beaker (at the first arrow) containing 0.9 ml of 150 mM KCl, 5 mM Hepes, 6 μM TPP+ and 5 mM succinate buffer. […] At the second arrow, mitochondria were subjected to oxidative stress by adding 5 μM rotenone (Complex I inhibitor) and 100 μM tert-butylhydroperoxide (t-BuOOH) to the buffer.

Rat heart mitochondria [3] = test: Mitochondrial membrane potential by safranine fluorescence under rotenone/t-BuOOH oxidative stress; format: biochemical; conditions: pretreatment 5 mM for 30 minutes; 5 μM rotenone and 100 μM t-BuOOH
Procedure: Mitochondrial membrane potential was measured by safranine. Safranine is a positively charged dye that accumulates in mitochondria on establishment of an electrical potential across the mitochondrial inner membrane. However, its fluorescence is quenched by its accumulation in mitochondria in response to mitochondrial membrane potential. Rat heart mitochondria (0.2 mg protein/200 μl) were transferred to a well containing 0.3 ml of 150 mM KCl, 5 mM Hepes, 15 μM safranine, 5 mM succinate buffer, 5 μM rotenone and 100 μM t-BuOOH. The mitochondria were placed in a multiplate reader. Fluorescence measurements were made with excitation and emission wavelengths of 485 and 585 nm respectively. Rotenone and t-BuOOH induced mitochondrial membrane potential resulting in a release of intramitochondrial safranine indicated by an increase in fluorescence signal.

[4] = test system: Male Sprague-Dawley rat hearts; conditions: 50 μM for 10 min prior to ischemia
Procedure: Male Sprague-Dawley rat hearts were retrograde (Langendorff) perfused with oxygenated Krebs Henseleit (KH) buffer in constant flow mode (12 mL/min/gram wet weight). Hearts were not electrically stimulated, and beat spontaneously at approximately 280 bpm. Left-ventricular pressure (LVP) was measured by a balloon inserted in the left ventricle, linked to a pressure transducer with digital recording at 500 Hz. […] Following an equilibration period of approximately 25 mm., global normothermic ischemia was imposed for 25 mm., followed by reperfusion for 30 mm as indicated by the arrows on the traces. For mNAC treatment, the drug was dissolved in KH buffer and infused via a port just above the aortic perfusion cannula, at a final concentration of 50 μM, for 10 min. prior to the onset of ischemia.
The ability of mitochondrially targeted N-acetylcysteine (mNAC) to improve post-ischemic recovery in rat heart was assessed. Male Sprague-Dawley rat hearts were retrograde (Langendorff) perfused with oxygenated Krebs Henseleit (KH) buffer in constant flow mode (12 mL/min/gram wet weight). Hearts were not electrically stimulated, and beat spontaneously at approximately 280 beats per minute. Left-ventricular pressure (LVP) was measured by a balloon inserted in the left ventricle, linked to a pressure transducer with digital recording at 500 Hz. […]

C=CC(O)CC(=O)O (stereo not shown) [3-HP, 3-hydroxy-4-pentenoate]
cells with condensed and fragmented nuclei (spinal cord neurons; mtGSH depletion by 3-HP prior to 250 μM H2O2 treatment): 70%

N[C@@H](CCC(=O)N[C@@H](CS)C(=O)NCC(=O)O)C(=O)O [GSH, glutathione, reference compound]
time for onset of H2O2-induced depolarization (versus control) ([1]; pretreatment 100 μM): did not significantly increase the time for onset of H2O2-induced depolarization

OO [H2O2]
neurons with condensed and fragmented nuclei (spinal cord neurons; 250 μM H2O2): ~42%

C[N+](C)(C)CCOC(=O)CNC(=O)[C@H](CS)NC(=O)CC[C@H](N)C(=O)O.[Cl-] [Mito GSH, Glutathione choline ester chloride]
NMDA-induced increase in ROS production (brain striatal neurons): prevented NMDA-induced increase in ROS production | oxidative stress-induced depolarization of mitochondrial membrane potential (Rat heart mitochondria [2]): prevented the oxidative stress-induced depolarization significantly | time for onset of H2O2-induced depolarization (versus control) ([1]; pretreatment 50 μM): significantly enhanced the time for onset of H2O2-induced depolarization | time to which TMRM fluorescence persisted after H2O2 treatment ([1]; pretreatment 50 μM for 30 minutes, 50 μM H2O2, control invisible at 32 minutes): 50 min | time for onset of H2O2-induced depolarization (versus control) ([1]; pretreatment 100 μM): significantly enhanced the time for onset of H2O2-induced depolarization | Time for onset of H2O2-induced depolarization ([1]; pretreatment 100 μM, control 25±3.2 min): 53 ± 3.6 min | onset of H2O2-induced depolarization and loss of TMRM fluorescence ([1]; 50 μM H2O2): delayed onset of H2O2-induced depolarization and loss of TMRM fluorescence

CC(=O)N[C@@H](CSC(C)=O)C(=O)OCC[N+](C)(C)C [N,S-acetyl cysteine choline ester, S,N-acetyl-L-cysteine choline ester]
release of intramitochondrial safranine (depolarization of mitochondrial membrane potential) (Rat heart mitochondria [3]): diminished the release of intramitochondrial safaranine

C[N+](C)(C)CCOC(=O)[C@@H](N)CS.[Cl-] [cysteine choline ester, [2-(2-Amino-3-mercapto-L-propionyloxy)-ethyl]-trimethyl-ammonium chloride]
oxidative stress-induced depolarization of mitochondrial membrane potential (Rat heart mitochondria [2]): prevented the oxidative stress-induced depolarization significantly

CC(=O)N[C@@H](CS)C(=O)OCC[N+](C)(C)C [mNAC, N-acetyl-L-cysteine choline ester]
onset of ischemic contracture [4]: appeared to delay the onset of ischemic contracture | overall recovery of LV developed pressure (systolic minus diastolic) ([4]; 25 min global ischemia, 30 min reperfusion, control 4.1%): 15.7% | oxidative stress-induced depolarization of mitochondrial membrane potential (Rat heart mitochondria [2]): prevented the oxidative stress-induced depolarization significantly | onset of H2O2-induced depolarization and loss of TMRM fluorescence ([1]; 50 μM H2O2): delayed onset of H2O2-induced depolarization and loss of fluorescence
